Experiments:
[1] = biological target: CXCR4 (Mus musculus, UniProt P70658); settings: CXCR4 tropic gp120; cultured mouse hippocampal neurons devoid of immune cells
Description: Aβd/t was isolated from medium of cultured 7PA2 cells, a CHO cell line expressing a form of human APP found in Familial AD. […] Neuronal cultures, fixation, permeabilization, blocking and immunostaining is performed starting with E16.5 mouse hippocampal neurons by common methods in broad use.
Images of fixed neurons immunostained for cofilin, growth cones and nuclei captured across the entire coverslip are exported to ImageJ. Macro functions are applied to set local threshold and shape/size segmentation for both the cofilin and growth cone antibodies. Cofilin stained material that is not within neurites is eliminated. Results are reported as rods/nucleus, number of rods per area, rods as percent of total area, or, if NeuN stained or identified morphologically, rods per neuron.

[2] = HAND phase 2 human trials and brain scans; cited from earlier work
[3] = system: CCR5; settings: pharmacologic blockade of CCR5 after stroke and traumatic brain injury; cited from earlier work
[4] = biological target: T1, CCR5 (Mus musculus, UniProt P51682); assay: gp120-induced cofilin-rod formation in cultured hippocampal neurons, CCR5-tropic gp120 (Fig. 2A); type: cell-based; settings: cultured mouse hippocampal neurons devoid of immune cells
T1 construct: neurons express CCR5 and CXCR4 receptors that control synapse regeneration; endogenous in cells; host or cells: primary E16.5 mouse hippocampal neurons
T1 sequence (P51682 whole entry): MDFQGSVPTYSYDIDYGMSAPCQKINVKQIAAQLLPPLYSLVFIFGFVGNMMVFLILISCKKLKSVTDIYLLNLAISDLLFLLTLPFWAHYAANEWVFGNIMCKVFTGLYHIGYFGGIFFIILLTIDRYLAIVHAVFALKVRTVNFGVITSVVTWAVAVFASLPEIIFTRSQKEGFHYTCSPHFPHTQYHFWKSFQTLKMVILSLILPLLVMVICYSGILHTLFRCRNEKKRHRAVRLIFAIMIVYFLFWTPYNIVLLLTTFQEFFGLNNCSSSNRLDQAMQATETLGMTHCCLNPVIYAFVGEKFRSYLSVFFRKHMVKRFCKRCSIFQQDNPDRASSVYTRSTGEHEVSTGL

Sequence of CXCR4 (P70658 whole entry): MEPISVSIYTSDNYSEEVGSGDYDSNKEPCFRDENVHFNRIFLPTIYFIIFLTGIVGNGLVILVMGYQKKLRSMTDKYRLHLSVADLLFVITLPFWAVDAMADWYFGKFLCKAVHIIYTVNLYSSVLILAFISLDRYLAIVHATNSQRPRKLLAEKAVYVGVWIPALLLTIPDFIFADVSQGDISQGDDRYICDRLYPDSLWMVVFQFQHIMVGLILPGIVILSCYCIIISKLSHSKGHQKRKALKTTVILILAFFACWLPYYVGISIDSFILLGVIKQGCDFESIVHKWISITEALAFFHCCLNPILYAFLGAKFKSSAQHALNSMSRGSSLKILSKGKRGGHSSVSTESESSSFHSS

In the case of c1cc(CN2CCCNCCNCCCNCC2)ccc1CN1CCCNCCNCCCNCC1 [AMD3100], the “cofilin-rods formed by neurons treated with gp120” value [1] was “inhibited”.
In the case of “[D-Ala1]-Ser-Thr-Thr-Thr-Asn-Tyr-Thr-NH2 [DAPTA]”, the cognitive deficits [2] is listed as “able to reverse cognitive deficits”.
For Cc1nnc(C(C)C)n1[C@@H]1C[C@H]2CC[C@@H](C1)N2CC[C@H](NC(=O)C1CCC(F)(F)CC1)c1ccccc1 [maraviroc], the “dendritic spines and neurite cortical projections” value [3] is given as “preservation of dendritic spines and new patterns of neurite cortical projections” and the “cofilin-rods formed by neurons treated with gp120” value [4] is given as “inhibited”.
